Test results reported in patent publication US5244678A, “Pharmaceutical composition containing a local anesthetic and/or centrally acting analgesic encapsulated in liposomes” (Ire-Celltarg S.A., priority 1986, dated 1993).
Entries after “also recorded” stand apart in the source; their conditions may differ.

Assays:
[1] = Blood kinetics in whole blood after peridural injection in rabbits; format: in vivo; details: rabbit
Experimental: Biodistribution and pharmacokinetics of the liposomes which have incorporated bupivacaine, administered peridurally
The formation of MLVs takes place by adding 3 ml of 0.3M Tris-HCl buffer, pH 8, followed by 5 centrifugations at 5000 g in the same buffer.
The results are expressed as a percentage of the injected dose (ID) in the whole blood.

motor fibers = details: bupivacaine used today in anesthesia; general knowledge; cited from earlier work
tail of rats = assay: Analgesic effect: threshold of the pain induced by an electric shock to the tail of rats; format: in vivo; details: rat tail, point S2
Experimental: The analgesic effect is measured by the increase in the threshold of the pain induced by an electric shock to the tail of rats.
Lipid film: Egg Pc/Chol, 4:3-60 mg of lipids (equivalent to 43.26 mg of egg Pc and 16.74 mg of Chol)+5 mg of bupivacaine base in lyophilized, liposoluble form. Formation of the liposomes: Suspension of the lipid film in the form of multilamellar liposomes in a 0.3M Tris-HCl buffer, pH 8 (3 ml). The liposomal suspension is centrifuged, and the liposomal pellet is injected as it is (0.5 ml) under the skin, in the rat's tail at a point S2.
The pain threshold is measured by electrical excitation at S2, and then at S1 (S1, situated 5 cm downstream from the injection point, serves for taking a reference with respect to the injection point, and also for measuring the possible diffusion of the product injected at S2).

[2] = Urinary excretion of radioactivity 2 hours after peridural injection; format: in vivo; details: rabbit, mean ± standard deviation, n=3
Experimental: Radioactivity excreted in the urine (ID×10^2) 2 hours after the peridural injection of [^3 H]Ch-labeled SUV, of MLV which has integrated ^3 H-labeled bupivacaine, or of non-encapsulated bupivacaine. Mean±standard deviation; the number in brackets=the number of animals.

[3] = Uptake by the nervous tissues after peridural injection; format: in vivo; details: rabbit, mean ± standard deviation, n=3
Description: Mean±standarddeviation; number in brackets=number of animals.

[4] = Biodistribution in the liver and heart 4 hours after peridural injection; format: in vivo; details: rabbit, mean ± standard deviation, n=3
Experimental: 0.2 ml of the centrifugation pellet are administered peridurally to rabbits, under the same conditions as in Example 1.
By way of control, 4.5 mg of bupivacaine for clinical use (Marcaine®-Astra-[…] strength hydrochloride solution) is administered under the same conditions with or without adrenaline, and with the addition of 0.01 mCi of [^3 H]bupivacaine, this combination being present in a total 0.2 ml of solution.
Likewise, by way of control, SUVs without bupivacaine are administered in the course of this study, under the conditions stated in Example 1.
The animals are sacrificed 120 and 240 minutes after the injection, and the organs and tissues are sampled under the same conditions as those of Example 1.
Biodistribution of [^3 H]Ch SUV, of MLVS which have integrated [^3 H]bupivacaine, and of bupivacaine, in the liver and heart 4 hours after the peridural injection (ID×10^2).

CCCCN1CCCCC1C(=O)Nc1c(C)cccc1C (stereo not drawn) [Bupivacaine, bupivacaine]
highest blood level (blood peak) [1]: 1.4 % of the injected dose | effect on sensory and motor fibers (motor fibers): blocks the sensory fibers and not the motor fibers; also recorded: affects motor fibers to only a small extent, if at all | time of rise of the pain threshold after injection (tail of rats): less than one hour | Radioactivity excreted in the urine [2]: 11.633 ± 0.518 ID×10^2 | Uptake by brachial plexus ([3]; 2 hrs): 0.295 ± 0.048 ID in 1 g×10^3 | Uptake by cauda equina ([3]; 2 hrs): 0.485 ± 0.057 ID in 1 g×10^3 | Uptake by lumbar marrow ([3]; 2 hrs): 0.411 ± 0.094 ID in 1 g×10^3 | Uptake by sciatic nerve ([3]; 2 hrs): 0.281 ± 0.026 ID in 1 g×10^3 | Uptake by brachial plexus ([3]; 4 hrs): 1.136 ± 0.008 ID in 1 g×10^3 | Uptake by cauda equina ([3]; 4 hrs): 0.132 ± 0.035 ID in 1 g×10^3 | Uptake by lumbar marrow ([3]; 4 hrs): 0.169 ± 0.046 ID in 1 g×10^3 | Uptake by nerve roots ([3]; 4 hrs): 0.153 ± 0.023 ID in 1 g×10^3 | Uptake by sciatic nerve ([3]; 4 hrs): 0.132 ± 0.028 ID in 1 g×10^3 | Biodistribution in the heart [4]: 2.142 ± 0.301 ID×10^2 | Biodistribution in the liver [4]: 20.477 ± 1.458 ID×10^2
